The record followed here is patent EP0620008B1, “Use of vip, analogues and fragments thereof for the treatment of neurodegenerative diseases” (YEDA RESEARCH AND DEVELOPMENT COMPANY, LTD., priority 1993, dated 1999).

Where no end group is shown, it is not given here.

The test system of data set [1] is neurons treated with fragment 25-35 of β-Amyloid peptide. Put plainly: survival of cerebral cortex neurons treated with fragment 25-35 of β-amyloid peptide. The class given is cell-based, rat. Conditions: 25 µM fragment alone; 5 days. On the procedure:
β-amyloid peptide is known to be involved in Alzheimer's disease and is a toxic substance to neurons grown in culture (Pike et al., J. of Neurosci., 13(4), 1676-1687 (1993)). Neurons from rat cerebral cortex, prepared as described above were treated with 25 µM of β-amyloid peptide fragment comprising amino acids in positions 25 to 35 mentioned in the above publication. The β-amyloid peptide fragment was dissolved in water and preincubated at 37°C for 48 h in 10% CO2. St-Nle^17-VIP (10 µl/1 ml medium) was added to the culture plates at varying concentrations together with the β-amyloid peptide fragment. The St-Nle^17-VIP was initially dissolved in DMSO to give a concentration of 10^-3 M and all further dilutions were performed in saline. Cells were then incubated for 5 days, stained with antibodies against neuron specific enolase and living neurons were counted as described above.

For a further data set, the system named is untreated neurons. Put plainly: survival of untreated cerebral cortical neurons (protection from naturally occurring death). Conditions: for concentrations able to protect cells from naturally occurring death: cerebral cortical cultures of newborn rats, number of cells at 10^-12 M serves as control, Figs. 2-4.
In data set [2] the test system is neurons treated with a VIP antagonist. The data set is described as follows: survival of cerebral cortical neurons treated with a VIP antagonist.
Experimental: (§1) • (a) Cerebral cortical cultures were prepared by a slight modification of the techniques described by Forsythe and Westbrook, (J. Physiol. Lond. 396:515 (1988)), in which cerebral cortex was used instead of hippocampus and newborn rats were utilized instead of E16 mice. […] Cerebral cortical cells were counted as above, however, only 40 fields per plate were counted comprising an area of 20 mm^2.
(§2) • (a) Cells were prepared as described in Example 5. […] One treatment was given at the beginning of a five day test period. Cell counts were performed on 100 fields, with a total area of 50 mm^2. Neurons were counted without knowledge of treatment.

Experimental for untreated neurons: as §1, §2

As to “GSNKGAIIGLM [fragment 25-35 of β-amyloid peptide]”, the “number of living neurons” value in data set [1] was determined as 42 per 20 mm^2. “St-A-V-T-T-D-N-Y-T (stearyl-AVTTDNYT) [peptide 5]”: the “concentration of maximal activity (neuronal survival)” value in the data set with untreated neurons (in absence of the VIP antagonist, five day test period, Fig. 5B) is listed as 10^-8 M; in data set [2] (in the presence of 10^-8 M VIP antagonist, five day test period, Fig. 5A) it was 10^-10 M. For the same substance, the “effect on neuronal survival” value in data set [2] (in the presence (Fig. 5A) and in the absence (Fig. 5B) of the VIP antagonist) was “VIP agonist, stimulating neuronal survival”. “St-H-S-D-G-I-F-T-D-S-Y-S-R-Y-R (stearyl-HSDGIFTDSYSRYR) [peptide 1]”: the “concentrations able to protect cells from naturally occurring death” value in the data set with untreated neurons is listed as “above 10^-8 M”. On the same count and under the same terms, the same measure for “St-K-Q-M-A-V-K-K-Y-L-A-A-V-L (stearyl-KQMAVKKYLAAVL) [peptide 2]”: “above 10^-9 M”.
